The text below walks through data of paper PMC9895061 (Signal Transduction and Targeted Therapy, 2023).

In data set [1] the test system is recombinant PRDX1. Put plainly: Click labeling assay. Type of data set: binding, human. The conditions noted are these: recombinant PRDX1, streptavidin HRP blot; competed by Celastrol. The procedure:
The click labeling method used in this paper refers to these researches.[49],[50] Alkynylated compounds were incubated with recombinant proteins for 1 h in buffer C (20 mM Hepes, […]). For some PRDX1 wild type samples, unalkynylated compounds were pre-incubated with proteins for 0.5 h before incubating with alkynylated compounds. The work concentration of proteins is 1 µM. After compounds incubation, the protein samples were subjected to click reaction procedures through terminal alkynyl group as previously described.[49],[50] Protein samples were resolved with SDS-PAGE and blotted with streptavidin HRP (1:10000, Thermo Scientific) and anti-PRDX1 antibody (8499, 1:1000, Cell Signaling Technology).

Data set [2] addresses T1, PRDX1 (Homo sapiens, UniProt Q06830).
T1 sequence (Q06830 1-199): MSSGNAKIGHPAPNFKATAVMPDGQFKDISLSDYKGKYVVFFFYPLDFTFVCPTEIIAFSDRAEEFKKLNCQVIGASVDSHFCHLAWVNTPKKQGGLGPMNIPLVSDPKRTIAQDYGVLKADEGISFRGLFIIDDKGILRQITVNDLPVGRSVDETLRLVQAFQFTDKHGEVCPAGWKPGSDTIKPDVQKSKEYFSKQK
Put plainly: Trx-TrxR-NADPH coupling peroxiredoxin activity assay, PRDX1. Type of data set: biochemical. The conditions noted are these: recombinant PRDX1, 1.5 h incubation, mean ± SEM, triplicate; read-out: IC50 against the peroxidase activity of PRDX1.

Each structure is given as a SMILES string.

For orientation: melting point means the temperature, or range, at which the solid turns liquid. On to `C#CCOCCOCCNC(=O)[C@]1(C)CC[C@]2(C)CC[C@]3(C)C4=CC=C5C(=CC(=O)C(O)=C5C)[C@]4(C)CC[C@@]3(C)[C@@H]2C1` [alkynylated Celastrol, (2R,4aS,6aS,12bR,14aS,14bR)-10-hydroxy-2,4a,6a,9,12b,14a-hexamethyl-11-oxo-N-(2-(2-(prop-2-yn-1-yloxy)ethoxy)ethyl)-1,2,3,4,4a,5,6,6a,11,12b,13,14,14a,14b-tetradecahydropicene-2-carboxamide], for which the melting point fell in the range of 64.7 to 68 °C. In addition, the “covalent binding to PRDX1 by click labeling (in words)” value in data set [1] was “covalently bound to PRDX1”.

The IC50 is the concentration that inhibits the measured activity by half. Regarding `COC(=O)[C@H](Cc1ccccc1)NC(=O)N[C@]1(C)CC[C@]2(C)CC[C@]3(C)C4=CC=C5C(=CC(=O)C(O)=C5C)[C@]4(C)CC[C@@]3(C)[C@@H]2C1` [19-266, Methyl (((2R,4aS,6aS,12bR,14aS,14bR)-10-hydroxy-2,4a,6a,9,12b,14a-hexamethyl-11-oxo-1,2,3,4,4a,5,6,6a,11,12b,13,14,14a,14b-tetradecahydropicen-2-yl)carbamoyl)-L-phenylalaninate], the melting point lay within 151.9 to 155.7 °C. Moreover, the half-maximal inhibitory concentration (IC50) in data set [2] is 280 ± 40 nM. On to `C#CCCOC(=O)[C@@H](C)NC(=O)N[C@]1(C)CC[C@]2(C)CC[C@]3(C)C4=CC=C5C(=CC(=O)C(O)=C5C)[C@]4(C)CC[C@@]3(C)[C@@H]2C1`, for which the melting point lay in the range of 123.4 to 127.8 °C.
